Legend:
[1] = system: HBCs derived from ES cells (H9); experiment: ALB/CK7 colony count of HBCs cultured on laminin-coated culture dishes (immunostaining); format: cell-based, human; conditions: HBCs seeded at 200 cells/cm^2 on laminin-coated dish, medium 3, 5 days after seeding
Method: (§1) In Example 1 and Comparative Example 1, with regard to HBCs derived from ES cells obtained in Reference Example 2, properties of cells treated with laminins were confirmed. The coating treatment was performed on cell culture dishes by using various types of human laminins with different isoforms (laminin 111 (LN111), laminin 211 (LN211), laminin 411 ([…]), and laminin 511 (LN511)). The coating treatment was conducted by preparing 20 μg/ml of each Laminin Coating Solution, adding the Laminin Coating Solution to each well at 5 μg/cm^2, and leaving the cell culture dishes at room temperature for 1 hour or more.
In Example 2 and Comparative Example 2, HBCs derived from ES cells (H9) obtained in Reference Example 2 were seeded in each well of various types of laminin-coated culture dishes at 200 cells/cm^2 in a similar manner to Example 1 and Comparative Example 1, the HBCs were cultured by using the medium 3, and the expressions of ALB and CK7 by cultured cells were confirmed. The HBCs were fixed by using a 4% paraformaldehyde solution 5 days after seeding the HBCs, immunostaining was performed, and thereafter, the numbers of colonies which were ALB positive (+)/CK7 positive (+), ALB positive (+)/CK7 negative (−) and ALB negative (−)/CK7 […] were counted. When the cells were cultured in the LN111-coated culture dish, the highest number of the ALB positive (+)/CK7 positive (+) colonies, which were colonies of hepatoblast-like cells, was able to be confirmed.

[2] = system: HBCs derived from ES cells; experiment: Proliferation of HBCs on various laminin-coated culture dishes; format: cell-based, human; conditions: attached HBCs cultured for 7 days; compared among LN111, LN211, LN411, LN511 coated dishes (FIG. 8)
Method: as §1
(§2) Next, the cells on day 9 after treated by the same procedure as in Reference Example 2 were seeded on each well of various types of laminin coated culture dishes at 7.5×10^4 cells/cm^2, the medium was exchanged after 15 minutes, and cells attached to the dishes were used as HBCs and cells not attached to the dishes were used as NHBCs (see FIG. 5). With regard to cells before passage (the cell population which contained both HBCs and NHBCs: before), HBCs, and NHBCs, the expressions of integrin α6 (ITGA6) and integrin β1 (ITGB1) were confirmed. As a result, almost all cells of HBCs were confirmed to be co-positive (FIG. 7). The HBCs attached to the dishes were each further cultured for 7 days. […]

[3] = system: HBCs derived from ES cells; experiment: AFP expression of cells cultured on various laminin-coated culture dishes; format: cell-based, human; conditions: cells cultured on laminin-coated dish, compared with cells immediately after passage (P0) (FIG. 9)
Method: as §1, §2

[4] = system: HBCs derived from ES cells (H9) and HBCs derived from iPS cells (Dotcom); experiment: Repeated passage (15 times) of HBCs on LN111-coated culture dish: cell number and AFP flow cytometry; format: cell-based, human
Method: In Example 3, the proliferative capacities of HBCs derived from ES cells (H9) obtained in Reference Example 2 and HBCs derived from iPS cells (Dotcom) generated by the same procedure were confirmed. The cells derived from ES cells or those derived from iPS cells on day 9 obtained by treating the cells by the same procedure as in Reference Example 2 were seeded in each well of the LN111-coated culture dish at 7.5×10^4 cells/cm^2, and the medium was exchanged after 15 minutes (the number of times of passage was 0, on day 9). After that, the cells were cultured for from 6 days to 7 days with the medium being exchanged every day, a cell suspension was prepared so that the number of cells was 7.5×10^4 cells/cm^2, and the cells were passaged on the LN111-coated culture dish. Such passage operations were performed 15 times.

[5] = system: HBCs derived from ES cells (H9); experiment: Differentiation induction of LN111-maintained HBCs to hepatocytes (HGF, OsM, DEX on Matrigel); format: cell-based, human; conditions: HBC P10 maintained on LN111 vs HBC P0; 14 days differentiation
Method: In view of the foregoing, in Example 5, HBCs (H9) with the number of passages of 0 (HBC P0), HBCs (H9) with the number of passages of 10 (HBC P10), and HBCs derived from a single cell (HBC clone) were cultured in a medium containing HGF, OsM (20 ng/ml), and DEX (10^−6 M) on Matrigel for 14 days, and the expression of each of marker genes before and after the differentiation induction treatment into liver by HGF, OsM, and DEX was confirmed. Clone cells were obtained by seeding cells on a culture dish at 200 cells/cm^2. The expression of each of gene markers was confirmed by real-time RT-PCR. Commercially available primer sets and reagents were used for real-time RT-PCR measurement. […]
Each of relative expression levels of marker genes of mature hepatocytes was confirmed by defining the expression level by human frozen hepatocytes cultured for 48 hours after being seeded on a culture dish as 1. […] It was confirmed that the differentiation rate into mature hepatocytes of hepatocytes obtained by differentiation induction on the HBCs (H9) with the number of passages of 10 (HBC P10) was higher than that of the hepatocytes obtained by differentiation induction on the HBCs (HBC P0), also from the ASGR1 positive cell rates analyzed by flow cytometry (FIG. 16A) and the amounts of ALB secretion and Urea secretion (FIGS. 16B and 16C).

[6] = system: HBCs derived from ES cells (H9); experiment: Differentiation induction of LN111-maintained HBCs to bile duct epithelial cells (EGF, ILGF2, collagen gel); format: cell-based, human; conditions: HBC P10 maintained on LN111 vs HBC P0; 14 days differentiation
Method: Specifically, in Example 6, HBCs (H9) without passage (HBC P0), HBCs passaged 10 times (HBC P10), and HBCs derived from a single cell (clone) were embedded in collagen gel by using a medium containing EGF (50 ng/ml) and ILGF2 (20 ng/ml), and were cultured for 14 days. Then, the expression of each of marker genes before and after the differentiation induction treatment to a bile duct by EGF and ILGF2 was confirmed. The expression was confirmed by a RT-PCR technique (FIG. 17). Commercially available primer sets and reagents were used for RT-PCR measurement. SOX9 and Type IV collagen are markers of bile duct epithelial cells, and ALB and αAT are markers of mature hepatocytes.
Each of relative expression levels of marker genes of bile duct epithelial cells and mature hepatocytes was confirmed by defining the expression level in cells of […] before being subjected to the differentiation induction as 1. The expressions of markers of bile duct epithelial cells were increased by the differentiation induction treatment. In addition, the expression levels of bile duct marker genes (SOX9 and Type IV collagen) by bile duct epithelial cells which were induced to differentiate from HBC P10 were higher than those which were induced to differentiate from HBC P0 (FIG. 17).

[7] = system: HBCs from human ES cells (H9); experiment: Marker positive rates of HBCs passaged 8 times on LN111- or LN111E8-coated culture dish (flow cytometry); format: cell-based
Method: By the same procedure as in Example 9, HBCs were seeded to each well of various types of laminin coated culture dishes at 7.5×10^4 cells/cm^2 by using a LN111- or LN111E8-coated culture dish, and the medium was exchanged after 15 minutes (the number of passages of 0, day 9). After that, the cells were cultured for from 6 days to 7 days with the medium being exchanged every day, and a cell suspension was prepared so that the number of cells was 7.5×10^4 cells/cm^2. Then, the cells were passaged on the LN111-coated culture dish or the LN111E8-coated culture dish. At the time when such passage operations were repeated 8 times (P8), the positive rate of AFP (%) was confirmed by flow cytometry analysis. […] In addition, also with regard to markers other than AFP (CD133, EpCAM, ALB, CK7, and CK19), their positive rates were confirmed by flow cytometry analysis at the time when the passage culture was repeated up to 8 times (P8).

Substance	number of ALB+/CK7+ colonies [1]	number of ALB+/CK7− colonies [1]	number of ALB−/CK7+ colonies [1]	proliferation rate of HBCs [2]	expression of AFP [3]	AFP positive cells ([4]; HBC P1, P10, P15, flow cytometry (FIG. 11))	proliferation of cultured cells over passages ([4]; passage every 6 to 7 days, 15 passages (FIG. 10))	differentiation efficiency and differentiation ability to hepatocytes [5]	differentiation ability to bile duct epithelial cells [6]	positive rate of AFP after passage ([7]; passaged 8 times (P8) (FIG. 24))	positive rates of markers other than AFP (CD133, EpCAM, ALB, CK7, CK19) ([7]; passaged 8 times (P8) (FIG. 25))
LN111: human recombinant laminin 111 (α1β1γ1), used to coat cell culture dishes	82	2	5	highest	expressed AFP in a similar manner to a group of cells immediately after passage (P0)	high expression rates of AFP regardless of the number of passages	continued to proliferate even after passaged 15 times	improved	improved	expressions of AFP were maintained	expressions of all markers were maintained
LN211: human recombinant laminin 211, comparative dish coating	25	3	12								
LN411: human recombinant laminin 411, comparative dish coating	12	6	31								
LN511: human recombinant laminin 511, comparative dish coating	14	2	36								

— US20160046904A1, “Method For Culturing Hepatoblast-Like Cells And Culture Product Thereof” (NATIONAL INSTITUTES OF BIOMEDICAL INNOVATION, HEALTH AND …, priority 2013, published 2016)
